# Reference: paper PMC10222987 (Viruses, 2023)
# Where two headings read alike, the source gives them in different places.
# Columns and labels:
# rgH1N1.NA/H275Y [1] = system: rgH1N1.NA/H275Y; parameters: species or system BALB/c mice; settings: mouse, in vivo
# H1N1pdm09.PA/I38T = system: H1N1pdm09.PA/I38T; parameters: species or system BALB/c mice; settings: mouse, in vivo
# rgH1N1.PA/I38T [2] = system: rgH1N1.PA/I38T; parameters: species or system BALB/c mice; settings: mouse, in vivo
# rgH1N1.PA/I38T [3] = system: rgH1N1.PA/I38T; parameters: species or system BALB/c mice; settings: mouse, in vivo; remark: listed apart in the source
# rgH1N1.WT [4] = settings: mouse, in vivo
# [5] = system: H3N2 (rgA/Victoria/3/75) PA/I38T; settings: cited from earlier work
# [6] = system: H1N1 (rgA/WSN/33) NA/H275Y; settings: cited from earlier work
# [7] = system: H1N1 (rgA/WSN/33) PA/I38T; settings: cited from earlier work
# rgH3N2.PA/I38T = system: rgH3N2.PA/I38T; parameters: species or system Syrian hamsters; settings: hamster, in vivo
# [8] = system: H1N1 (rgA/WSN/33) PA/I38T; settings: cited from earlier work; remark: listed apart in the source
# rgH1N1.NA/H275Y [9] = system: rgH1N1.NA/H275Y; parameters: species or system BALB/c mice; settings: mouse, in vivo; remark: listed apart in the source
# rgH3N2.WT = settings: hamster, in vivo
# [10] = system: H1N1 (rgA/WSN/33) NA/H275Y; settings: cited from earlier work; remark: listed apart in the source
# rgH1N1.PA/I38T [11] = system: rgH1N1.PA/I38T; parameters: species or system BALB/c mice; settings: mouse, in vivo; remark: listed apart in the source
# [12] = system: H1N1pdm09 (A/Osaka/129/2009) PA/I38T; type: cell-based, influenza A virus
# rgH1N1.WT [13] = settings: mouse, in vivo; remark: listed apart in the source
# [14] = system: H3N2 (rgA/Victoria/3/75) PA/I38T; settings: cited from earlier work; remark: listed apart in the source
compound,measurement,setting,value
CCOC(=O)C1=C[C@@H](OC(CC)CC)[C@H](NC(C)=O)[C@@H](N)C1 [oseltamivir phosphate],Degree of virus titer reduction,rgH1N1.NA/H275Y [1],0.38 log10TCID50/mL
same,Lung virus titers vs vehicle,rgH1N1.NA/H275Y [1],statistically lower compared with vehicle
same,Lung virus titers vs vehicle,H1N1pdm09.PA/I38T,statistically lower compared with vehicle
same,Lung virus titers vs vehicle,rgH1N1.PA/I38T [2],statistically lower compared with vehicle
same,Mean virus titer,rgH1N1.PA/I38T [3],3.17 log10 TCID50/mL
same,Degree of virus titer reduction,rgH1N1.WT [4],1.15 log10TCID50/mL
same,Lung virus titers vs vehicle,rgH1N1.WT [4],statistically lower compared with vehicle
CCC(CC)O[C@@H]1C=C(C(=O)O)C[C@H](N)[C@H]1NC(C)=O [oseltamivir acid],FC (fold change of IC50 relative to WT),[5],1.21 fold
same,IC50,[5],0.16 nM
same,FC (fold change of IC50 relative to WT),[6],226.12 fold
same,IC50,[6],182 nM
same,FC (fold change of IC50 relative to WT),[7],1.00 fold
same,IC50,[7],0.8 nM
O=C1c2c(O)c(=O)ccn2N([C@@H]2c3ccccc3SCc3c2ccc(F)c3F)[C@@H]2COCCN12 [baloxavir acid],Antiviral activity vs oseltamivir phosphate,rgH1N1.NA/H275Y [1],significantly higher antiviral activity compared with oseltamivir phosphate
same,Lung virus titer,rgH1N1.NA/H275Y [1],< 1.5 log10 TCID50/mL
same,"Lung virus titers vs vehicle, time course",H1N1pdm09.PA/I38T,significantly lower with baloxavir than the vehicle-treated mice
same,"Reduction in lung virus titers vs oseltamivir phosphate (5 mg/kg, twice daily)",H1N1pdm09.PA/I38T,statistically similar
same,Viral rebound (increase in virus titers after dosing),H1N1pdm09.PA/I38T,did not observe any increase in virus titers
same,Lung virus titer,"H1N1pdm09.PA/I38T; sc, 30 mg/kg",1.87 log10TCID50/mL
same,"Antiviral effect vs oseltamivir phosphate (5 mg/kg, twice daily)",rgH1N1.PA/I38T [2],statistically similar
same,Lung virus titers vs vehicle,rgH1N1.PA/I38T [2],significantly lower than vehicle
same,Reduction of virus titers compared with vehicle,rgH1N1.PA/I38T [2],1.88 log10 TCID50/mL
same,Viral rebound (increase in virus titers after dosing),rgH1N1.PA/I38T [2],did not observe any increase in virus titers
same,Lung virus titers vs vehicle,"rgH1N1.PA/I38T [2]; sc, 10 mg/kg",significant decrease in virus titers
same,Reduction in virus titers vs vehicle and oseltamivir phosphate,rgH3N2.PA/I38T,statistically significant reduction in virus titers
same,EC50,[8],11.4 nM
same,FC (fold change of EC50 relative to WT),[8],27.24 fold
same,Inhibitory effect on loss of body weight vs oseltamivir phosphate,rgH1N1.NA/H275Y [9],significantly greater with baloxavir acid than with oseltamivir phosphate
same,Inhibitory effect on loss of body weight vs vehicle,rgH1N1.NA/H275Y [9],significant inhibitory effect on loss of body weight
same,Reduction in virus titers vs vehicle and oseltamivir phosphate,rgH3N2.WT,significantly higher reduction in virus titers
same,EC50,[10],0.32 nM
same,FC (fold change of EC50 relative to WT),[10],0.77 fold
same,Inhibitory effect on loss of body weight vs vehicle,rgH1N1.PA/I38T [11],significant inhibitory effect on loss of body weight
same,"Antiviral activity vs oseltamivir phosphate (5 mg/kg, twice daily)",rgH1N1.WT [4],significantly greater than oseltamivir phosphate
same,Lung virus titer,rgH1N1.WT [4],< 1.5 log10 TCID50/mL
same,Lung virus titers vs vehicle,rgH1N1.WT [4],significantly lower than vehicle-treated groups at all doses
same,EC50,[12],15.7 nM
same,FC (fold change of EC50 relative to WT),[12],25.74 fold
same,Inhibitory effect on loss of body weight vs vehicle,rgH1N1.WT [13],significant inhibitory effect on loss of body weight
same,EC50,[14],63.8 nM
same,FC (fold change of EC50 relative to WT),[14],56.59 fold
